Results as given in US9409888B2, “Dimeric compounds” (priority 2012, dated 2016).

Legend:
BIR3 domain of XIAP = BIR3 domain of XIAP (Homo sapiens (Human), UniProt P98170); assay: TR-FRET assay for BIR3: inhibition of binding of XIAP BIR3 domain to Peptide A (SMAC-derived peptide); details: 6× His-tagged BIR3 domain (aa 241-356 of XIAP) 10 nM, Peptide A 20 nM
BIR2 domain of XIAP = BIR2 domain of XIAP (Homo sapiens (Human), UniProt P98170, C202A/C213G); assay: TR-FRET assay for BIR2: inhibition of binding of XIAP BIR2 domain to Peptide A (SMAC-derived peptide); details: 6× His-tagged BIR2 domain (aa 124-240 of XIAP) 10 nM, Peptide A 20 nM
Chain of BIR2 domain of XIAP (P98170 other isoform, or with tags, fused parts or gaps, stated change not applied): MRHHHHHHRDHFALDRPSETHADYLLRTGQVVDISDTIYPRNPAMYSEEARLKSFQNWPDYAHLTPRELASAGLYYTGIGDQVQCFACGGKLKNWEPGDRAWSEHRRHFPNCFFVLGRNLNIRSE
Description: TR-FRET Assay for BIR2 and BIR3
The peptides were labeled with the fluorescent tags FITC or TAMRA and Kd values were determined by fluorescence polarization assay. […] The peptide sequence was derivatized with biotin to provide […]-(ε-biotin)-OH 1:2 TFA as the substrate for the TR-FRET assay.
The XIAP protein sequence was obtained from the SWISS-PROT protein sequence database and the BIR2 and BIR3 domains were derived from that. The sequence of the BIR2 domain used for the TR-FRET assay is […].
Time-resolved fluorescence resonance energy transfer (TR-FRET) signals were measured 1 hour later at room temperature. Test compound potency was assessed at 10 serially diluted concentrations. Percentage of inhibition at each concentration was determined to generate an IC50 value for each test compound.

Chain of BIR3 domain of XIAP (P98170 other isoform, or with tags, fused parts or gaps): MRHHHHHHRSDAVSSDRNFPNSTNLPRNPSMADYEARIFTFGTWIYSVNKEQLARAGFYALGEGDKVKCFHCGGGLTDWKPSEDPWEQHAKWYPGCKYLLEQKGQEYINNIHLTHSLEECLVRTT

| Structure (SMILES) | IC50 (BIR3 domain of XIAP) [nM] | IC50 (BIR2 domain of XIAP) [nM] |
| --- | --- | --- |
| CN[C@@H](C)C(=O)N[C@H]1CN(C(=O)CCCCCCC(=O)N2C[C@H](NC(=O)[C@H](C)NC)C(=O)N(Cc3c(OC)ccc4cc(Br)ccc34)c3ccccc32)c2ccccc2N(Cc2c(OC)ccc3cc(Br)ccc23)C1=O [Ex 18, (2S)-N-[(3S)-5-[(6-Bromo-2-methoxy-1-naphthyl)methyl]-1-[8-[(3S)-5-[(6-bromo-2-methoxy-1-naphthyl)methyl]-3-[[(2S)-2-(methylamino)propanoyl]amino]-4-oxo-2,3-dihydro-1,5-benzodiazepin-1-yl]-8-oxo-octanoyl]-4-oxo-2,3-dihydro-1,5-benzodiazepin-3-yl]-2-(methylamino)propanamide] | > 5480 | 0.871 |
| CN[C@@H](C)C(=O)N[C@H]1CN(C(=O)c2ccc(C(=O)N3C[C@H](NC(=O)[C@H](C)NC)C(=O)N(Cc4c(OC)ccc5cc(Br)ccc45)c4ccccc43)c(C)c2)c2ccccc2N(Cc2c(OC)ccc3cc(Br)ccc23)C1=O [Ex 10, (2S)-N-[(3S)-5-[(6-Bromo-2-methoxy-1-naphthyl)methyl]-1-[4-[(3S)-5-[(6-bromo-2-methoxy-1-naphthyl)methyl]-3-[[(2S)-2-(methylamino)propanoyl]amino]-4-oxo-2,3-dihydro-1,5-benzodiazepine-1-carbonyl]-3-methyl-benzoyl]-4-oxo-2,3-dihydro-1,5-benzodiazepin-3-yl]-2-(methylamino)propanamide] | > 5480 | 1.38 |
| CN[C@@H](C)C(=O)N[C@H]1CN(C(=O)c2cc(C)c(C(=O)N3C[C@H](NC(=O)[C@H](C)N)C(=O)N(Cc4c(OC)ccc5cc(Br)ccc45)c4ccccc43)cc2C)c2ccccc2N(Cc2c(OC)ccc3cc(Br)ccc23)C1=O [Ex 13, (2S)-2-Amino-N-[(3S)-5-[(6-bromo-2-methoxy-1-naphthyl)methyl]-1-[4-[(3S)-5-[(6-bromo-2-methoxy-1-naphthyl)methyl]-3-[[(2S)-2-(methylamino)propanoyl]amino]-4-oxo-2,3-dihydro-1,5-benzodiazepine-1-carbonyl]-2,5-dimethyl-benzoyl]-4-oxo-2,3-dihydro-1,5-benzodiazepin-3-yl]propanamide] | > 5480 | 0.801 |
| CN[C@@H](C)C(=O)N[C@H]1CN(C(=O)c2cncc(C(=O)N3C[C@H](NC(=O)[C@H](C)NC)C(=O)N(Cc4c(OC)ccc5cc(Br)ccc45)c4ccccc43)c2)c2ccccc2N(Cc2c(OC)ccc3cc(Br)ccc23)C1=O [Ex 8, (2S)-N-[(3S)-5-[(6-Bromo-2-methoxy-1-naphthyl)methyl]-1-[5-[(3S)-5-[(6-bromo-2-methoxy-1-naphthyl)methyl]-3-[[(2S)-2-(methylamino)propanoyl]amino]-4-oxo-2,3-dihydro-1,5-benzodiazepine-1-carbonyl]pyridine-3-carbonyl]-4-oxo-2,3-dihydro-1,5-benzodiazepin-3-yl]-2-(methylamino)propanamide] | > 5480 | 1.32 |
